In one series the target is rat liver microsomes. As to the kind of experiment: Difference spectra titration of rat liver microsomes. To be noted: one specific binding site. Here is the method: Liver microsomes were prepared as follows: Rat liver was homogenized in 33 mM TRIS*HCl pH 7.4, 33 mM KCl, 1 mM EDTA, 250 mM sucrose and protease inhibitors. The homogenate was centrifuged first at 600 g then at 6,500 g for 10 minutes to separate nuclei and mitochondria. Supernatant was centrifuged at 105,000 g for 60 minutes. The pellet (microsomal fraction) was dissolved in 10 mM TRIS*HCl pH 7.4, 10 mM EDTA, 50% glycerol and stored at -80°C [20].
Difference spectra measurements were performed in tandem cuvettes at 37°C. The sample as well as the reference chamber contained rat liver microsomes in 100 mM HEPES buffer (pH 7.6). The baseline was recorded between 365 and 500 nm. Varying concentrations of 12-Imidazolyl-dodecan-1-yl-phosphocholine (5–95 μM) were added to rat microsomes. Difference spectra were obtained after the system reached equilibrium.
(In general: Liver microsomes are a subcellular fraction often used to study metabolism.)

On the set-up of series [1]: method as in earlier work. The conditions noted are these: compared among I-ol, I-an and I-phosphocholines; ref "ω-imidazolyl-alkyl derivatives as new preclinical drug candidates for NASH therapy"; cited from earlier work.

Molecules are shown by their SMILES.

Take `OCCCCCCCCCCCCn1ccnc1` [I-ol]: the Kd – broadly, the concentration at which binding is half-saturated – on rat liver microsomes is 578 nM. In series [1], the “tolerability in acute toxicity study (in words)” value was “best tolerated compound”.

The record behind these values is article PMC7377376, “Drug targeting CYP2E1 for the treatment of early-stage alcoholic steatohepatitis” (PLoS ONE, 2020).
